# Source: ChEMBL document CHEMBL3596190, “Non-classical -carbonic anhydrase inhibitors-towards novel anti-mycobacterials” (Medchemcomm, 2014)
# Calls of active or inactive are those of the source. The calls are words filed in the database; no cut-off is given here.
# How the values were obtained:
# [1] = test system: Mycobacterium tuberculosis; assay: Effect on quaternary structure of un-tagged Mycobacterium tuberculosis beta-carbonic anhydrase Rv3588c at pH 8.5 by size exclusion chromatography
# [2] = test system: Mycobacterium tuberculosis; assay: Effect on quaternary structure of un-tagged Mycobacterium tuberculosis beta-carbonic anhydrase Rv3588c at pH 6.0 by size exclusion chromatography
# BL21-AI [3] = conditions: Mycobacterium tuberculosis, at 25 µM
# Description: Inhibition of His6-tagged Mycobacterium tuberculosis Rv3588c expressed in Escherichia coli BL21-AI cells assessed as reduction in Vmax at 25 uM by stopped flow CO2 hydration assay based Michaelis-Menten analysis
# [4] = Inhibition of His6-tagged Mycobacterium tuberculosis Rv3588c expressed in Escherichia coli BL21-AI cells by stopped flow CO2 hydration assay based Michaelis-Menten analysis; assay type: cell-based
# [5] = test system: Mycobacterium tuberculosis; assay: Growth inhibition of Mycobacterium tuberculosis H37Ra incubated for 7 days by resazurin dye based fluorescence assay; assay type: functional; conditions: 168 h
# [6] = target: T1, Beta-carbonic anhydrase 1 (Mycobacterium tuberculosis) (UniProt P9WPJ7); assay: Binding affinity to His6-tagged Mycobacterium tuberculosis Rv1284 expressed in Escherichia coli BL21-AI cells assessed as […] in melting temperature at 250 uM by SYPRO orange dye based differential scanning fluorimetry
# T1 sequence (whole entry): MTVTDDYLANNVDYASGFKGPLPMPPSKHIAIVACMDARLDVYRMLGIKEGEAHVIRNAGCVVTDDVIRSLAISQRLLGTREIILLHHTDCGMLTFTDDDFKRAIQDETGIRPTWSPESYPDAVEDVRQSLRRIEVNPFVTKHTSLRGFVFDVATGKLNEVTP
# BL21-AI [7] = assay: Inhibition of His6-tagged Mycobacterium tuberculosis Rv3588c expressed in Escherichia coli BL21-AI cells assessed as increase in Hill coefficient at 25 uM by stopped flow CO2 hydration assay based Michaelis-Menten analysis
SMILES,Activity [1],Activity [2],inhibition (BL21-AI [3]),Ki [4] [µM],MIC90 [5] [µM],deltaTm [6] [K],inhibition (BL21-AI [7])
C=C1CC[C@@H](C/C=C(\C)CC/C=C(/CCC=C(C)C)C(=O)O)C(C)(C)[C@H]1CC/C(C)=C/C(=O)O,inactive,inactive,Active,10,> 50,5.4,Active
COc1c(Br)cc(/C=C/C(=O)NCCCNCCCCNCCCNC(=O)/C=C/c2cc(Br)c(OC)c(Br)c2)cc1Br [IANTHELLIFORMISAMINE C],inactive,inactive,Active,16,12.5,1,Active
COc1c(Br)cc(C/C(=N\O)C(=O)NCCCC(=O)N(C)CCCCN(C)CCCNC(=O)/C(Cc2cc(Br)c(OC)c(Br)c2)=N/O)cc1Br [SPERMATINAMINE],inactive,inactive,,23,6.3,1.2,Active
N#C[S-].[Na+] [THIOCYANATE SODIUM],,,Active,8,,,
